Assay results: PubChem BioAssay AID1963838 (Molecular Pharmacology Branch, DTP, NCI, 2024)

System: 855422-203-R-J1-PDC complex spheroid viability
Test: Anticancer human tumor 855422-203-R-J1-PDC patient-derived bladder carcinoma cell line growth inhibition [POLQ]
Conditions: for IC50: curve of first compound; for viability, T/C: stronger effect = lower value
Outline: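 Three-cell-type spheroids modelling solid tumor plus stroma served as the readout system; POL inhibitors were tested individually and in combination, concentration ranges set by clinical Cmax where known.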

[1] = second compound 0.0316 µM, first compound 0.0316 µM
[2] = second compound 0.0316 µM, first compound 0.1 µM
[3] = second compound 0.0316 µM, first compound 0.316 µM
[4] = second compound 0.0316 µM, first compound 1 µM
[5] = second compound 0.0316 µM, first compound 3.16 µM
[6] = second compound 0.0316 µM, first compound 10 µM
[7] = second compound 0.1 µM, first compound 0.0316 µM
[8] = second compound 0.1 µM, first compound 0.1 µM
[9] = second compound 0.1 µM, first compound 0.316 µM
[10] = second compound 0.1 µM, first compound 1 µM
[11] = second compound 0.1 µM, first compound 3.16 µM
[12] = second compound 0.1 µM, first compound 10 µM
[13] = second compound 0.316 µM, first compound 0.0316 µM
[14] = second compound 0.316 µM, first compound 0.1 µM
[15] = second compound 0.316 µM, first compound 0.316 µM
[16] = second compound 0.316 µM, first compound 1 µM
[17] = second compound 0.316 µM, first compound 3.16 µM
[18] = second compound 0.316 µM, first compound 10 µM
[19] = second compound 1 µM, first compound 0.0316 µM
[20] = second compound 1 µM, first compound 0.1 µM
[21] = second compound 1 µM, first compound 0.316 µM
[22] = second compound 1 µM, first compound 1 µM
[23] = second compound 1 µM, first compound 3.16 µM
[24] = second compound 1 µM, first compound 10 µM
[25] = second compound 3.16 µM, first compound 0.0316 µM
[26] = second compound 3.16 µM, first compound 0.1 µM
[27] = second compound 3.16 µM, first compound 0.316 µM
[28] = second compound 3.16 µM, first compound 1 µM
[29] = second compound 3.16 µM, first compound 3.16 µM
[30] = second compound 3.16 µM, first compound 10 µM
[31] = second compound 10 µM, first compound 0.0316 µM
[32] = second compound 10 µM, first compound 0.1 µM
[33] = second compound 10 µM, first compound 0.316 µM
[34] = second compound 10 µM, first compound 1 µM
[35] = second compound 10 µM, first compound 3.16 µM
[36] = second compound 10 µM, first compound 10 µM
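Note: spheroids exposed to compounds for seven days before readout.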

Q: Which IC50 (second compound 0.0316 µM) does the source give for `CC1COCCN1c1cc(C2(O)CC3CCC(C2)O3)c2cnn(-c3ccn[nH]3)c2n1` (stereo unspecified) + Cc1cccc(N(C)C(=O)C2C(O)CCN2c2nc(C)cc(C(F)(F)F)c2C#N)c1 here?
A: 0.0938 µM

Q: What about the IC50 (second compound 0.1 µM) of the same compound?
A: 0.0901 µM

Q: What about the IC50 (second compound 0.316 µM) of the same compound?
A: 0.0882 µM

Q: What about the IC50 (second compound 1 µM) of the same compound?
A: 0.0898 µM

Q: What about the IC50 (second compound 3.16 µM) of the same compound?
A: 0.0911 µM

Q: What about the IC50 (second compound 10 µM) of the same compound?
A: 0.0834 µM

Q: What about the viability, T/C [1] of the same compound?
A: 109%

Q: And the viability, T/C [2]?
A: 46.7%

Q: And the viability, T/C [3]?
A: 14.1%

Q: And the viability, T/C [4]?
A: 9.62%

Q: What about the viability, T/C [5] of the same compound?
A: 6.47%

Q: And the viability, T/C [6]?
A: 3.79%

Q: And the viability, T/C [7]?
A: 91.8%

Q: And the viability, T/C [8]?
A: 45.9%

Q: And the viability, T/C [9]?
A: 12.6%

Q: What about the viability, T/C [10] of the same compound?
A: 9%

Q: What about the viability, T/C [11] of the same compound?
A: 6.6%

Q: What about the viability, T/C [12] of the same compound?
A: 4.11%

Q: What about the viability, T/C [13] of the same compound?
A: 104%

Q: What about the viability, T/C [14] of the same compound?
A: 43.5%

Q: What about the viability, T/C [15] of the same compound?
A: 16.4%

Q: And the viability, T/C [16]?
A: 8.37%

Q: And the viability, T/C [17]?
A: 6.11%

Q: What about the viability, T/C [18] of the same compound?
A: 3.68%

Q: And the viability, T/C [19]?
A: 95%

Q: What about the viability, T/C [20] of the same compound?
A: 45.5%

Q: What about the viability, T/C [21] of the same compound?
A: 13.2%

Q: What about the viability, T/C [22] of the same compound?
A: 9.4%

Q: And the viability, T/C [23]?
A: 5.77%

Q: What about the viability, T/C [24] of the same compound?
A: 3.51%

Q: What about the viability, T/C [25] of the same compound?
A: 97.5%

Q: What about the viability, T/C [26] of the same compound?
A: 45.8%

Q: What about the viability, T/C [27] of the same compound?
A: 10.4%

Q: And the viability, T/C [28]?
A: 9.18%

Q: And the viability, T/C [29]?
A: 6.79%

Q: And the viability, T/C [30]?
A: 4.13%

Q: What about the viability, T/C [31] of the same compound?
A: 83.4%

Q: What about the viability, T/C [32] of the same compound?
A: 44%

Q: What about the viability, T/C [33] of the same compound?
A: 15.1%

Q: And the viability, T/C [34]?
A: 9.77%

Q: What about the viability, T/C [35] of the same compound?
A: 7.49%

Q: And the viability, T/C [36]?
A: 2.55%

Q: Which results are given for `COc1cc2cc(C(=O)CCC(=O)O)sc2cc1OC` + Cc1cccc(N(C)C(=O)C2C(O)CCN2c2nc(C)cc(C(F)(F)F)c2C#N)c1?
A: IC50 (second compound 0.0316 µM): > 10 µM; IC50 (second compound 0.1 µM): > 10 µM; IC50 (second compound 0.316 µM): > 10 µM; IC50 (second compound 1 µM): > 10 µM; IC50 (second compound 3.16 µM): > 10 µM; IC50 (second compound 10 µM): > 10 µM; viability, T/C [1]: 111%; viability, T/C [2]: 118%; viability, T/C [3]: 106%; viability, T/C [4]: 94%; viability, T/C [5]: 108%; viability, T/C [6]: 113%; viability, T/C [7]: 108%; viability, T/C [8]: 118%; viability, T/C [9]: 100%; viability, T/C [10]: 108%; viability, T/C [11]: 122%; viability, T/C [12]: 125%; viability, T/C [13]: 96.6%; viability, T/C [14]: 149%; viability, T/C [15]: 103%; viability, T/C [16]: 95.5%; viability, T/C [17]: 116%; viability, T/C [18]: 102%; viability, T/C [19]: 85.4%; viability, T/C [20]: 131%; viability, T/C [21]: 102%; viability, T/C [22]: 129%; viability, T/C [23]: 112%; viability, T/C [24]: 89.2%; viability, T/C [25]: 118%; viability, T/C [26]: 122%; viability, T/C [27]: 102%; viability, T/C [28]: 126%; viability, T/C [29]: 129%; viability, T/C [30]: 120%; viability, T/C [31]: 108%; viability, T/C [32]: 127%; viability, T/C [33]: 121%; viability, T/C [34]: 114%; viability, T/C [35]: 114%; viability, T/C [36]: 114%

Q: `O=C(Nc1ccc(O)c(NS(=O)(=O)c2ccc(F)cc2)c1)c1ccc(-c2ccccc2)cc1` + Cc1cccc(N(C)C(=O)C2C(O)CCN2c2nc(C)cc(C(F)(F)F)c2C#N)c1 was tested. Which IC50 (second compound 0.0316 µM) did it give?
A: > 10 µM

Q: What about the IC50 (second compound 0.1 µM) of the same compound?
A: > 10 µM

Q: And the IC50 (second compound 0.316 µM)?
A: > 10 µM

Q: And the IC50 (second compound 1 µM)?
A: > 10 µM

Q: And the IC50 (second compound 3.16 µM)?
A: > 10 µM

Q: And the IC50 (second compound 10 µM)?
A: 7.89 µM

Q: And the viability, T/C [1]?
A: 113%

Q: And the viability, T/C [2]?
A: 107%

Q: What about the viability, T/C [3] of the same compound?
A: 95%

Q: And the viability, T/C [4]?
A: 85.3%

Q: What about the viability, T/C [5] of the same compound?
A: 106%

Q: What about the viability, T/C [6] of the same compound?
A: 66.2%

Q: What about the viability, T/C [7] of the same compound?
A: 110%

Q: And the viability, T/C [8]?
A: 122%

Q: And the viability, T/C [9]?
A: 98.5%

Q: What about the viability, T/C [10] of the same compound?
A: 92.8%

Q: And the viability, T/C [11]?
A: 109%

Q: And the viability, T/C [12]?
A: 58.4%

Q: And the viability, T/C [13]?
A: 99%

Q: What about the viability, T/C [14] of the same compound?
A: 104%

Q: And the viability, T/C [15]?
A: 108%

Q: What about the viability, T/C [16] of the same compound?
A: 111%

Q: What about the viability, T/C [17] of the same compound?
A: 128%

Q: What about the viability, T/C [18] of the same compound?
A: 60.8%

Q: What about the viability, T/C [19] of the same compound?
A: 97.5%

Q: And the viability, T/C [20]?
A: 123%

Q: What about the viability, T/C [21] of the same compound?
A: 91.6%

Q: And the viability, T/C [22]?
A: 105%

Q: What about the viability, T/C [23] of the same compound?
A: 115%

Q: And the viability, T/C [24]?
A: 59.7%

Q: What about the viability, T/C [25] of the same compound?
A: 88.6%

Q: What about the viability, T/C [26] of the same compound?
A: 124%

Q: What about the viability, T/C [27] of the same compound?
A: 125%

Q: And the viability, T/C [28]?
A: 105%

Q: And the viability, T/C [29]?
A: 120%

Q: What about the viability, T/C [30] of the same compound?
A: 52.7%

Q: And the viability, T/C [31]?
A: 125%

Q: And the viability, T/C [32]?
A: 110%

Q: And the viability, T/C [33]?
A: 125%

Q: What about the viability, T/C [34] of the same compound?
A: 106%

Q: What about the viability, T/C [35] of the same compound?
A: 111%

Q: What about the viability, T/C [36] of the same compound?
A: 34.1%
